Laboratory results taken from US20230410294A1, “METHOD FOR GRADING THE NUCLEAR MORPHOLOGY OF A TUMOR” (Nanyang Technological University, priority 2020, published 2023).
Entries after “also recorded” stand apart in the source; their conditions may differ.

How the values were obtained:
Assay type in all cases: cell-based
[1] = test system: SK-N-SH cells; assay: Lamin A level by immunostaining after anti-cancer drug treatment; details: SK-N-SH cells remaining attached after 24 h; DOX 1 μM, Etop 10 μM; vs DMSO; FIG. 19a-b
Procedure: Nanopillar arrays were cleaned and sterilized by air plasma and UV exposure before cell culture. The nanochip was then coated with fibronectin ([…], Sigma-Aldrich) for 30 minutes under 37° C. The SK-N-SH cells were seeded on the nanostructures after coating and grown in Eagle's Minimum Essential Medium (MEM) supplemented with 2 mM L-glutamine (Gibco), 1% MEM Non-Essential Amino Acids (NEAA) (Gibco), 10% fetal bovine serum (FBS) (Life Technologies) and 100 U ml^−1 penicillin and […] streptomycin (Life Technologies) in a standard incubator at 37° C. with 5% CO2. Drug treatment was done after overnight incubation, the SK-N-SH cells on nanostructures are treated with Etoposide (ETOP) (Sigma), Doxorubicin (DOX) (Sigma) or Dimethyl sulfoxide (DMSO) (Sigma). […]
(§1) Fluorescence imaging and live cell imaging were done by confocal microscopy (Zeiss LSM 800 with Airyscan or a spinning disc confocal microscope (SDC) that is built around a Nikon Ti2 inverted microscope equipped with a Yokogawa CSU-W1 confocal spinning head). […] The live cell imaging and subsequent fluorescence imaging were done by SDC and the image acquisition and processing was controlled by MetaMorph (Molecular Device) software.

[2] = test system: SK-N-SH cells; assay: Nanopillar-guided subnuclear anisotropicity after anti-cancer drug treatment; details: SK-N-SH on nanopillar arrays, 24 h, DOX 1 μM, Etop 10 μM; for fraction of cells with dominant isotropic ring features and low deformation coherency: DMSO control 0.262±0.160, FIG. 19e; for pillar coherency: DMSO control 0.3853±0.1448, FIG. 19d
Procedure: Nanopillar arrays were cleaned and sterilized by air plasma and UV exposure before cell culture. The nanochip was then coated with fibronectin ([…], Sigma-Aldrich) for 30 minutes under 37° C. The SK-N-SH cells were seeded on the nanostructures after coating and grown in Eagle's Minimum Essential Medium (MEM) supplemented with 2 mM L-glutamine (Gibco), 1% MEM Non-Essential Amino Acids (NEAA) (Gibco), 10% fetal bovine serum (FBS) (Life Technologies) and 100 U ml^−1 penicillin and […] streptomycin (Life Technologies) in a standard incubator at 37° C. with 5% CO2. Drug treatment was done after overnight incubation, the SK-N-SH cells on nanostructures are treated with Etoposide (ETOP) (Sigma), Doxorubicin (DOX) (Sigma) or Dimethyl sulfoxide (DMSO) (Sigma). After 24-hour incubation, the treated cells and untreated cells were fixed with 4% Paraformaldehyde (PFA) Solution in PBS (Boster biological technology AR1068) for 15 minutes for subsequent immunostaining.
The nuclear morphology in SK-N-SH cells were visualized by immunostaining lamin A and lamin B1. The lamin A and vimentin level in cells were characterized by immunostaining lamin A and vimentin. Cells were cultured on nanopillars and incubated overnight before fixation with pre-warmed 4% Paraformaldehyde (PFA) in PBS (Boster biological technology AR1068) for 15 minutes at room temperature. After washing with PBS for three times, the cells were permeabilized in 0.5% Triton X-100 (Sigma) in PBS for 15 minutes, followed by blocking with 5% bovine serum albumin (BSA) (Sigma) in PBS for 1 hour. Subsequently, samples were incubated with primary antibodies (anti-lamin A, Abcam, ab26300; anti-lamin B1, Abcam, ab16048; anti-vimentin, Sigma, V5255.) at 1:400 dilution at room temperature for 1 hour or 4° C. overnight. […]
as §1
The guided subnuclear irregularities were characterized by measurement of their anisotropicity. […] After thresholding the cropped images of lamin A channel using the masks, the coherency, an indicator for anisotropy property, of the nanopillar-guided nuclear features was measured using orientationJ (a plugin function in ImageJ).

[3] = test system: MDA-MB-231 cells; assay: Wound healing assay (migration rate); details: MDA-MB-231, treatment for 24 h vs DMSO, p value=0.0363; FIG. 9e-f
Procedure: (§2) Cells were maintained in 35 mm dishes for each cell line until approximately 90% confluent. Scratch was made in the confluent monolayer of cells with a sterile […] pipette tip, and fresh culture medium was replaced. Brightfield microscopic pictures were taken of the same field at 24 hours. Migration rate was measured by quantifying the closure area within the same time frame using ImageJ.

[4] = test system: MCF-7 cells; assay: Wound healing assay (migration rate); details: MCF-7, treatment for 24 h vs DMSO, p value=0.7440; FIG. 9e-f
Procedure: as §2

[5] = test system: MDA-MB-231 cells; assay: Nanopillar-guided subnuclear deformation anisotropy (coherency) after drug treatment
[6] = test system: MCF-7 cells; assay: as above; details: MCF-7 on nanopillar arrays, treated vs DMSO; FIG. 9c-d
Procedure: Prior to cell culture, the nanostructured chips were cleaned by air plasma for 10 min and exposed to UV for 15 min Subsequently, the nanostructured substrates were coated with fibronectin (2 ug/ml, Sigma-Aldrich) for 30 minutes at 37° C. After coating, cell culture was performed on the substrates. All the cell lines used in this work were maintained in the Dulbecco's Modified Eagle Medium (DMEM) (Gibco) supplemented with 10% fetal bovine serum (FBS) (Life Technologies) and 1% Penicillin-Streptomycin (Life Technologies) in a standard incubator at 37° C. with 5% CO2. […]
Imaging of the fluorescently labeled cells on nanopillar arrays was performed using laser scanning confocal microscopy (Zeiss LSM 800 with Airyscan). […] Live cell imaging and the subsequent fluorescence imaging was performed using a spinning disc confocal microscope (SDC) that is built around a Nikon Tit inverted microscope equipped with a Yokogawa CSU-W1 confocal spinning head, a Plan-Apo objective (100×1.45-NA), a back-illuminated sCMOS camera (Orca-Fusion; Hamamatsu). […]
Anisotropicity of nanopillar-guided subnuclear shape irregularities was measured on nanopillar arrays. […] Then, the anisotropicity of the subnuclear shape irregularities was measured as coherency, an indicator for anisotropy property, using orientationJ (a plugin function in ImageJ).

Structure (SMILES): COc1cccc2c1C(=O)c1c(O)c3c(c(O)c1C2=O)C[C@@](O)(C(=O)CO)C[C@@H]3O[C@H]1C[C@H](N)[C@H](O)[C@H](C)O1 [DOX, doxorubicin]
- lamin A level (in words) [1]: significantly high lamin A level
- fraction of cells with dominant isotropic ring features and low deformation coherency [2]: 0.607±0.152
- pillar coherency [2]: 0.3057±0.1862

Structure (SMILES): COc1cc([C@@H]2c3cc4c(cc3[C@@H](O[C@@H]3O[C@@H]5CO[C@@H](C)O[C@H]5[C@H](O)[C@H]3O)[C@H]3COC(=O)[C@H]23)OCO4)cc(OC)c1O [Etop, etoposide]
- lamin A level (in words) [1]: significantly high lamin A level
- fraction of cells with dominant isotropic ring features and low deformation coherency [2]: 0.772±0.079
- pillar coherency [2]: 0.2606±0.1564

Structure (SMILES): COc1cc(/C=C/C(=O)CC(=O)/C=C/c2ccc(O)c(OC)c2)ccc1O [curcumin]
- migration rate change (in words) [3]: lower migration rate
- migration speed change (in words) [4]: do not show significant changes in migration speed
- lowest concentration at which pillar coherency value and fraction of line-deformation cells responded ([5]; MDA-MB-231, DMSO, 1 μM and 10 μM tested, FIG. 14): 1 µM
- pillar coherency value ([5]; MDA-MB-231 on nanopillar arrays (500 nm diameter, 3 μm pitch), 24-hour treatment, DMSO control 0.4218±0.1305, FIG. 9c): 0.2426±0.1570
- fraction of line-deformation cells ([5]; MDA-MB-231 on nanopillar arrays, 24-hour treatment, line = cell coherency >0.3, DMSO control 0.9333±0.1155, FIG. 9d): 0.2646±0.2695
- change in nuclear deformation coherency / line deformation (in words) ([5]; MDA-MB-231 on nanopillar arrays, treated vs DMSO): significant decreases in nuclear deformation coherency; also recorded: significantly less line deformation
- change in anisotropy (coherency) of induced nuclear deformation (in words) [6]: no significant coherency changes; also recorded: No significant change
